Test results: patent US20240417738A1, “IMMUNOTHERAPIES FOR THE TREATMENT OF CANCER” (Ohio State Innovation Foundation, priority 2021, published 2024)

Experiments:
[1] = tested on: Calreticulin, Hmgb1, Lc3b mRNA in MC38 cells; test: In vitro gene regulation by RT-qPCR; type: cell-based, murine; settings: 8 μM, 24 hours
Method: MC38 cells were seeded at 3×10^5 cells/well in 6-well plates 24 hours before treatments. […] R848 and IVM were both treated at 8 μM, either as free drug solution or in squalene NE. Total RNA was extracted using TRI reagent (Zymo Research) per manufacturer protocol. cDNA was prepared by high-capacity cDNA reverse transcription kit (Invitrogen, Waltham, MA, USA), and real-time qPCR (RT-qPCR) was done using SsoAdvanced™ Universal SYBRR Green Supermix (Bio-Rad Laboratories, Hercules, CA) on a QuantStudio 7 Flex Real-time PCR System. RT-qPCR primers for murine Calreticulin, Hmgb1, Lc3b, and Actb were purchased from Sigma-Aldrich. Actb was selected as the housekeeping gene control. The relative amount of RNA level was calculated and compared according to the 2-ΔΔCt method.

[2] = Saturated solubility study in squalene NE and PBS; type: physicochemical; settings: 2 mg/ml, room temperature, 24 hours
Method: In the saturated solubility study, R848 or IVM were dissolved in PBS or formulated in NE at 2 mg/ml and incubated at room temperature for 24 hours. Insoluble solid drugs were pelleted down by centrifugation. Supernatants were collected for concentration analysis. R848 concentrations were quantified by UV-Vis spectrometry at 320 nm using a NanoDrop 2000 spectrophotometer. IVM concentrations were quantified by high-performance liquid chromatography (HPLC) using an isocratic mobile phase composed of water/methanol/acetonitrile (8:36:56, v/v/v), an C18 column (Kromasil 150-C-18, 4.6×150 mm), and PDA detection at 230 nm.

MC38 cells = test: Cell viability assay (MTS); type: cell-based, murine; settings: (SEM)
Method: Cell Viability Assay. MC38 cells were seeded at 3000 cells/well in 96-well plates 24 hours before treatments. […] After 72 hour-treatment, cell viability was examined by CellTiter 96R AQueous One Solution (Promega, Madison, WI) per manufacturer protocol. The IC50 for R848 or IVM was determined by R programming.

Compound | Calreticulin mRNA level [1] | Increase of solubility in squalene-based NE compared with PBS [2] [fold] | IC50 (MC38 cells; 72 hours) [µM] | IC50 (MC38 cells; Mus musculus, MC-38, 72 hours) [µM]
CC[C@H](C)[C@H]1O[C@]2(CC[C@@H]1C)C[C@@H]1C[C@@H](C/C=C(\C)[C@@H](O[C@H]3C[C@H](OC)[C@@H](O[C@H]4C[C@H](OC)[C@@H](O)[C@H](C)O4)[C@H](C)O3)[C@@H](C)/C=C/C=C3\CO[C@@H]4[C@H](O)C(C)=C[C@@H](C(=O)O1)[C@]34O)O2 [IVM] | did not show significant Calreticulin regulation | 100 | 10.9 ± 4.15 | –
CCOCc1nc2c(N)nc3ccccc3c2n1CC(C)(C)O [R848, 4-amino-2-ethoxymethyl-α, α-dimethyl-1H-imidazol[4,5-c]quinoli-ne-1-ethanol] | – | 2 | – | > 100
